Tests used:
[1] = Survival after serial 5FU challenges every 7 days with ABC294640 every other day; type: in vivo, mice; details: vs control, FIG. 30
Protocol: FIG. 30. illustrates the survival of C57BL/6J mice after serious 5FU treatment every 7 days and ABC294640 treatment every other day (n=10 mice group).
Repopulation analyses was also performed to investigate whether ABC294640 treatment functionally promotes HSC regeneration after chemotherapeutic stress.

[2] = test system: hematopoietic stem cells; assay: Hematopoietic stem cell number in bone marrow after 5FU injury with ABC294640 treatment; type: in vivo, mice; details: vs solvent control
Protocol: In order to calculate the number of hematopoietic stem cells in mice, statistical quantification was performed for the number of hematopoietic stem cells using the molecular marker system Lin^−Sca1^+c-Kit^+CD150^+CD48^−, in combination with flow cytometry. Briefly, 2 million bone marrow cells were resuspended in 100 μl PBS, and 2 μl of a combination of anti-Lin, anti-Sca-1, anti-c-Kit, anti-CD150 and anti-CD48 was added. Samples were kept on ice for 1 h and washed with 1 ml of PBS, then resuspended with […] of PBS for flow cytometry analysis to determine the number of hematopoietic stem cells in the mouse bone marrow. T-test analysis was carried out using Graphpad6.0, and the difference was considered statistically significant when P<0.05. Twenty 8-week-old C57 mice (purchased from Laboratory Animal Center, Sun Yat-sen University) were injected intraperitoneally with 5FU at a dose of 150 mg/kg, respectively. After 5FU treatment, control mice (10 mice) were injected with a solvent control solution (1:1 physiological saline: PEG400) and the SphK2 inhibitor treatment mice (10 mice) were injected with the SphK2 inhibitor ABC294640. Briefly, 5FU was injected on day 1, and the inhibitor and solvent control solution were injected on day 2 and every other day, for five times in total. […] The SphK2 inhibitor ABC294640 was purchased from Selleck and dissolved in dimethyl sulfoxide (DMSO), it was then diluted with a mixture solution of polyethylene glycol 400 (PEG400) and physiological saline (1:1), and was injected to the mice with a dose of 10 mg/kg. T-test analysis was carried out using Graphpad6.0, and the differences were considered statistically significant when P<0.05.

[3] = day 14 post 5FU treatment, FIG. 26

O=C(NCc1ccncc1)C12CC3CC(C1)CC(c1ccc(Cl)cc1)(C3)C2 [ABC294640, 3-(4-chloro-phenyl)-adamantane-1-carboxylic acid (pyridin-4-ylmethyl)-amide]
survival [1]: notably increased survival
number of hematopoietic stem cells in bone marrow ([2]; after 5FU 150 mg/kg i.p., ABC294640 10 mg/kg every other day x5, day 12, **P<0.01, FIG. 4): increased significantly
increase of CD150 HSC pool size [2, 3]: about 2.2 fold
increase of LT-HSC pool size [2, 3]: about 2.2 fold
increase of ST-HSC pool size [2, 3]: about 1.6 fold

From US20210369691A1, “METHODS AND COMPOSITIONS FOR IMPROVING BONE MARROW HEMATOPOIETIC FUNCTIONS” (Sun Yat-Sen University, priority 2018, published 2021)
